We go through 15 compounds from PubChem BioAssay (NCI).

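48-hour exposure; five concentrations; linearly interpolated endpoints. GI50 = concentration required for 50% inhibition of growth. Definition used: TGI = concentration required for complete inhibition of growth.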 Where only a bound is given, the exact number is not on record here.

Some test systems named below: ACHN renal; UACC-257 melanoma; OVCAR-5 ovarian; SW-620 colon; LOX IMVI melanoma; TK-10 renal; OVCAR-3 ovarian; HCT-116 colon; HCC-2998 colon; MDA-MB-435.
Common to all, as to assay: NCI-60 cell line screen, 48 h

As to `O=c1cc2n(c(=O)[nH]1)C1OC(C(O)C1O)[C@H]2CCO` (stereo partly drawn), the TGI in the experiment with ACHN renal, in the experiment on UACC-257 melanoma, in the experiment on OVCAR-5 ovarian, with SW-620 colon, in the experiment on LOX IMVI melanoma and in the experiment with TK-10 renal was above 100 µM throughout.

For `COCC1C(=O)c2cc3c(cc2C12C=CC1(C=C2)OCCO1)OCO3` (stereo not drawn), the TGI in the experiment with ACHN renal came out at 25.3 µM; in the experiment with UACC-257 melanoma, 32.6 µM; with SW-620 colon it was 8.76 µM; in the experiment with OVCAR-3 ovarian it was 26.5 µM; with TK-10 renal, 34.9 µM; with HCT-116 colon, 6.77 µM.

As to `Nc1nc(=O)n(C2CC(O)C(O)C(CO)O2)cc1F` (stereo not drawn), the TGI with ACHN renal, in the experiment on UACC-257 melanoma, with OVCAR-5 ovarian, in the experiment on SW-620 colon, in the experiment on LOX IMVI melanoma and in the experiment on OVCAR-3 ovarian was above 100 µM throughout. Also, the TGI in the experiment on TK-10 renal, in the experiment with HCT-116 colon and in the experiment on HCC-2998 colon was above 100 µM each time.

`C/C(=N\Nc1ccc2ccccc2n1)c1ccccc1O`: the TGI in the experiment on ACHN renal, in the experiment with UACC-257 melanoma, in the experiment on OVCAR-5 ovarian, in the experiment with SW-620 colon, in the experiment on LOX IMVI melanoma and with MDA-MB-435 was above 100 µM in each case. Also, the TGI in the experiment with OVCAR-3 ovarian was above 20 µM; with TK-10 renal, above 100 µM; with HCT-116 colon it was above 100 µM.

As for `COC(=O)CCC(=O)CC(=O)C(=O)Nc1ccc(F)cc1`, the TGI with ACHN renal, in the experiment on UACC-257 melanoma, in the experiment with OVCAR-5 ovarian, with SW-620 colon, in the experiment with LOX IMVI melanoma and with OVCAR-3 ovarian was above 100 µM each time. Also, the TGI in the experiment on TK-10 renal, in the experiment with HCT-116 colon and in the experiment on HCC-2998 colon was above 100 µM throughout.

With `O=C(Nc1ccc(Cl)c(Cl)c1)C(=O)Nn1c(=S)[nH]c2ccccc2c1=O`, the TGI with ACHN renal, with UACC-257 melanoma, in the experiment with OVCAR-5 ovarian, with SW-620 colon, in the experiment on LOX IMVI melanoma and in the experiment on TK-10 renal was above 100 µM in each case. For the same compound, the TGI in the experiment on HCT-116 colon and with HCC-2998 colon was above 100 µM in each case.

For `O=C(CC1(O)C(=O)Nc2c(Cl)cccc21)c1ccccc1` (stereo not drawn), the TGI with ACHN renal, in the experiment on UACC-257 melanoma, in the experiment on OVCAR-5 ovarian, in the experiment with SW-620 colon, in the experiment on LOX IMVI melanoma and with OVCAR-3 ovarian was above 100 µM throughout. Besides, the TGI with TK-10 renal and in the experiment on HCC-2998 colon was above 100 µM throughout.

In the case of `Cc1cc2cc(Cl)ccc2nc1C(=O)c1ccccc1`, the TGI with ACHN renal, with UACC-257 melanoma, in the experiment with OVCAR-5 ovarian, in the experiment with SW-620 colon, in the experiment on LOX IMVI melanoma and in the experiment with OVCAR-3 ovarian was above 100 µM each time. The TGI in the experiment on TK-10 renal, with HCT-116 colon and in the experiment on HCC-2998 colon was above 100 µM throughout.

`COc1ccc(CN2C(=O)C(Cc3cc(OC)c(OC)c(C)c3OC)N(C(=O)OC(C)C)C(=O)/C2=C/c2cc(OC)c(OC)c(C)c2OC)cc1` (stereo not drawn): the TGI with ACHN renal, in the experiment with UACC-257 melanoma, in the experiment with OVCAR-5 ovarian, with SW-620 colon, in the experiment with LOX IMVI melanoma and in the experiment on OVCAR-3 ovarian was above 100 µM in each case. In addition, the TGI in the experiment with TK-10 renal, with HCT-116 colon and in the experiment on HCC-2998 colon was above 100 µM each time.

Turning to `Cc1cc2c(cc1C)N1Cc3c(ccc(C)c3C)N(C2)C1` (tested in a mixture with another compound), the TGI in the experiment on SW-620 colon, with LOX IMVI melanoma, with OVCAR-3 ovarian, in the experiment on TK-10 renal, with HCT-116 colon and with HCC-2998 colon was above 100 µM in each case.

For `O=c1oc2c3ccc4ccccc4c3n(CCN3CCOCC3)c2c2ccccc12`, the TGI in the experiment on ACHN renal, in the experiment with UACC-257 melanoma, in the experiment on SW-620 colon, in the experiment on LOX IMVI melanoma, in the experiment with OVCAR-3 ovarian and in the experiment with TK-10 renal was above 100 µM throughout. For the same compound, the TGI in the experiment with HCT-116 colon and in the experiment on HCC-2998 colon was above 100 µM each time.

For the compound `CC1(C)CC(=O)C(C(c2cccc(O)c2O)C2C(=O)CC(C)(C)CC2=O)C(=O)C1`, the TGI in the experiment with ACHN renal, in the experiment with UACC-257 melanoma, with OVCAR-5 ovarian, in the experiment on SW-620 colon, in the experiment with LOX IMVI melanoma and with MDA-MB-435 was above 100 µM throughout. Moreover, the TGI in the experiment with OVCAR-3 ovarian, in the experiment with TK-10 renal and in the experiment on HCT-116 colon was above 100 µM each time.

Take `COc1ccc(C(=O)C(c2ccc(OC)cc2)C2C(=O)Oc3ccccc32)cc1` (stereo not drawn): the GI50 with ACHN renal, in the experiment on UACC-257 melanoma, with OVCAR-5 ovarian, with SW-620 colon, with OVCAR-3 ovarian and with TK-10 renal was above 100 µM throughout. The GI50 with HCT-116 colon and in the experiment on HCC-2998 colon was above 100 µM in each case. Besides, the TGI with ACHN renal, with UACC-257 melanoma, with OVCAR-5 ovarian, in the experiment on SW-620 colon, in the experiment with OVCAR-3 ovarian and in the experiment on TK-10 renal was above 100 µM each time. The TGI with HCT-116 colon and in the experiment on HCC-2998 colon was above 100 µM in each case.

As to `COc1cc(C2c3cc4c(cc3[C@H](NC(=O)c3cccs3)C3COC(=O)[C@H]23)OCO4)cc(OC)c1OC` (stereo partly drawn), the TGI is 18.7 µM in the experiment with ACHN renal; above 100 µM in the experiment on UACC-257 melanoma; above 95.1 µM with OVCAR-5 ovarian; above 100 µM in the experiment with SW-620 colon; above 41 µM in the experiment with LOX IMVI melanoma; above 100 µM in the experiment with OVCAR-3 ovarian. For the same compound, the TGI in the experiment on TK-10 renal was above 100 µM; in the experiment with HCT-116 colon, 1.05 µM; in the experiment on HCC-2998 colon, 13.2 µM.

Take `O=C1OC(c2ccccc2)C2CC3CC4(CCC3CN12)OCCO4` (stereo not drawn): the TGI in the experiment on UACC-257 melanoma, in the experiment on OVCAR-5 ovarian, with SW-620 colon, in the experiment with LOX IMVI melanoma, in the experiment with OVCAR-3 ovarian and in the experiment with TK-10 renal was above 100 µM each time. This compound came in with a TGI with HCT-116 colon above 100 µM.
